Where “and” joins values, the source holds several entries; their conditions need not be identical. Equal values may be shown once.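 Compound exposure: 48 hours, 5 concentrations, 96-well plates. At the TGI there is no net growth.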
Tests used:
Experiment in all cases: growth of human tumour cells (NCI), 48 h
786-0 renal = test system: 786-0 renal
COLO 205 colon = test system: COLO 205 colon
HOP-62 NSCLC = test system: HOP-62 NSCLC
HOP-92 NSCLC = test system: HOP-92 NSCLC
HT29 colon = test system: HT29 colon
MDA-MB-435 = test system: MDA-MB-435
MOLT-4 leukemia = test system: MOLT-4 leukemia
OVCAR-5 ovarian = test system: OVCAR-5 ovarian
SF-268 CNS = test system: SF-268 CNS
UO-31 renal = test system: UO-31 renal
MDA-N = test system: MDA-N

Structure (SMILES)	TGI (786-0 renal)	TGI (COLO 205 colon)	TGI (HOP-62 NSCLC)	TGI (HOP-92 NSCLC) [µM]	TGI (HT29 colon)	TGI (MDA-MB-435)	TGI (MOLT-4 leukemia)	TGI (OVCAR-5 ovarian) [µM]	TGI (SF-268 CNS) [µM]	TGI (UO-31 renal) [µM]	TGI (MDA-N)
N#Cc1cc2c(cc1Cl)Sc1nnc(Nc3ccccc3)n1S2(=O)=O	8.49 µM	4.75 µM	3.36 µM	4.74	6.91 µM	4.8 µM	4.06 µM	3.8	10.5	3.89	–
COC(=O)N[C@H](C(=O)NC(OCc1ccccc1)C1COC(C)(C)O1)C(C)O[Si](C)(C)C(C)(C)C (stereo not given in full)	> 100 µM	> 100 µM	> 100 µM	> 100	> 100 µM	–	> 100 µM	> 100	> 100	> 100	> 100 µM
CCCC(=O)[O-].CCCC(=O)[O-].NCCN.NCCN.[Co+3].[O-][Cl+3]([O-])([O-])[O-]	> 100 µM	> 100 µM	> 100 µM	> 100	> 100 µM	–	> 100 µM	> 100	> 100	> 100	–
N/C(=N\S(=O)(=O)c1ccc(-c2ncccc2C(F)(F)F)s1)Nc1ccc(Cl)cc1	34.7 µM	> 100 µM	38.3 µM	30	39.3 µM	–	53.7 µM	44	31.5	38.4	–
Cc1cc(C)nc(NC(P(=O)(O)O)P(=O)(O)O)n1	> 100 µM	> 100 µM	> 100 µM	–	> 100 µM	–	–	> 100	> 100	> 100	> 100 µM
C[n+]1c2ccccc2c(NC(CCCN=C(N)N)C(=O)O)c2ccccc21 (stereo not given)	> 100 µM	> 100 µM	> 100 µM	> 100	> 100 µM	–	> 100 µM	> 100	> 100	> 100	–
COc1cc2nc(-c3cccs3)nc(Cl)c2cc1OC	> 100 µM	> 100 µM	> 100 µM	–	> 100 µM	> 100 µM	–	> 100	> 100	> 100	–
COc1ccc2nc(-c3ccccc3)c(=O)[nH]c2c1	> 100 µM	> 100 µM	> 100 µM	> 100	> 100 µM	> 100 µM	> 100 µM	> 100	> 100	–	> 100 µM
Nc1c(S(=O)(=O)c2ccccc2)c2nc3ccccc3nc2n2c1nc1ccccc12	> 50.5 µM	> 100 µM	> 49.6 µM	> 100	> 100 µM	–	> 100 µM	> 100	> 72.9	> 100	–
CC(=O)NC1C(Sc2ncn(C3OC(CO)C(O)C(O)C3NC(C)=O)n2)OC(CO)C(O)C1O (stereo not given)	> 100 µM	> 100 µM	> 100 µM	> 100	> 100 µM	> 100 µM	> 100 µM	> 100	> 100	–	> 100 µM
O=C1C(Br)=CC2(C=C1Br)CCNC1=C2C(=O)c2ncccc2C1=O	3.11 µM	3.6 µM	1.73 µM	4.38	4.56 µM	0.354 µM	–	3.09	4.99	2.35	0.353 µM
O=C1OCC2OC(=O)c3cc(O)c(O)c(O)c3-c3c(O)c(O)c(O)c4c3C(=O)OC(C2OC(=O)c2cc(O)c(O)c(O)c2-c2c1cc(O)c(O)c2O)C1OC(=O)C2C4=C(O)C(=O)C23Oc2cc(O)c4c(c2[C@H]13)O[C@H](c1ccc(O)c(O)c1)[C@@H](O)C4 (stereo not given in full)	56.7 µM	54.9 µM	> 100 µM	> 100	42.7 µM	45 µM	54 µM	36.2	50.7	> 100	–
CCOC(=O)CCC1(CCC(=O)OCC)CCCCCCCCC(CCC(=O)OCC)(CCC(=O)OCC)C(=O)C1=O	> 100 µM	> 100 µM	> 100 µM	> 100	> 100 µM	> 100 µM	–	> 100	> 100	–	> 100 µM
CC(=O)Nc1c(C(=N)C#N)ncn1CCO	> 100 µM	> 100 µM	> 100 µM	> 100	> 100 µM	> 100 µM	–	> 100	> 100	–	> 100 µM
O=Cc1ccc(-c2ccc(-c3ccc(CO)s3)o2)s1	> 48.9 µM	> 85.7 µM	> 84.3 µM	61.5	> 53.2 µM	> 49.3 µM	> 39 µM	–	> 76.1	> 71.3	–
C=C1CC[C@H]2C(=O)OC(c3ccoc3)C[C@]2(C)C/C=C\C=C/1C(=O)OC (stereo not given in full)	> 25 µM	> 25 µM	> 25 µM	> 25	> 25 µM	–	–	> 25	–	> 25	> 25 µM
Cc1n[n+](Cc2ccccc2)c2sc(N)nn12	> 100 µM	> 100 µM	> 100 µM	–	> 100 µM	> 100 µM	> 100 µM	> 100	> 100	> 100	> 100 µM
O=C1C=C(Nc2ccc(S(=O)(=O)Nc3nccs3)cc2)c2ccccc2C1=O	> 100 µM	–	29.7 µM	> 100	39.3 µM	33.5 µM	> 100 µM	43.9	> 100	> 100	38.5 µM
O=P1(Cc2ccccc2)N(Cc2ccccc2)[C@@H]2CCCC[C@H]2N1Cc1ccccc1	27.2 µM	18.7 µM	32.2 µM	–	18.6 µM	19.8 µM	8.44 µM	24.7	24.3	19.7	19.8 µM
CCC1CC(O)c2c(O)c3c(c(O)c2C1O)C(=O)c1cccc(O)c1C3=O (stereo not given) (tested in a mixture with another compound)	0.758 µM and 1.22 µM	0.0939 µM and 0.019 µM	0.197 µM and 1.79 µM	–	0.181 µM and 0.202 µM	0.0713 µM and 0.0207 µM	0.0755 µM and 0.0479 µM	0.0301	0.501	0.038	0.093 µM and 0.0639 µM
COc1ccc(C2(CC(C)C)CCN(S(=O)(=O)c3ccc(C)cc3)C2)cc1OC (stereo not given)	> 100 µM	> 100 µM	> 100 µM	–	> 100 µM	> 100 µM	17.4 µM	> 100	95.4	> 100	> 100 µM
COCCn1cnc2c(Cl)nc(Nc3ccccc3)nc21	> 100 µM	> 100 µM	> 100 µM	–	> 100 µM	40.7 µM	60.5 µM	> 100	> 100	–	–
